Test results reported in article PMC4890880 (ACS infectious diseases, 2016).
Like-named read-outs stand apart in the source and are kept apart here.

Tested on: HepG2-A16-CD81EGFP cells
Conditions: for IC50: read-out: Tox_IC50, HepG2 cytotoxicity
[1] = sheet 2nd round, maximal inhibition in dose response
[2] = 2nd round, maximal inhibition in dose series

Row | Compound | IC50 (sheet 2nd round) | Tox_max_inhibition (%) [1] | also measured
1 | COc1ccc(NC(=O)N2CCCCN3[C@H](CN(C)C)[C@H](c4ccc(C#Cc5ccccc5)cc4)[C@@H]3C2)cc1 [BRD-K78727929-001-08-1] | 8.47 µM | 100% | –
2 | COc1ccc(-c2ccc([C@H]3[C@@H](C#N)N(C(=O)NC(C)C)[C@@H]3CO)cc2)cc1 [BRD-K42750356-001-01-3] | – | – | IC50 (sheet "2nd round"): > 10 µM; Tox_max_inhibition (%) (sheet "2nd round"): 10%
3 | CN1C(=O)c2cc(NC(=O)c3ccc(C(F)(F)F)cc3)ccc2OC[C@H]2O[C@@H](CC(=O)NCc3ccc4c(c3)OCO4)CC[C@H]21 [BRD-K38534329-001-01-1] | 5.49 µM | 57% | –
4 | COc1ccc2c3c([nH]c2c1)[C@H](CO)N(S(C)(=O)=O)CC31CCN(C(=O)Nc2ccccc2)CC1 [BRD-K47463456-001-01-7] | – | – | IC50 (sheet "2nd round"): > 10 µM; Tox_max_inhibition (%) (sheet "2nd round"): 13%
5 | O=C(Nc1ccccc1F)N1CCCCN2[C@H](CO)[C@H](c3ccc(/C=C/c4ccccc4)cc3)[C@H]2C1 [BRD-K88581921-001-01-3] | > 10 µM | 3% | –
6 | COc1ccc(NC(=O)N2CCCCN3[C@H](CO)[C@H](c4ccc(C#Cc5ccccc5)cc4)[C@@H]3C2)cc1 [BRD-K83953444-001-02-5] | > 10 µM | 55% | –
7 | Cc1ccc(S(=O)(=O)N(C)C[C@H]2Oc3cc(C#CC4CCCC4)ccc3S(=O)(=O)N([C@@H](C)CO)C[C@H]2C)cc1 [BRD-K99467823-001-01-1] | > 10 µM | 31% | –
8 | COc1ccc2c3c(n(C)c2c1)[C@H](CO)N(Cc1ccc2c(c1)OCO2)CC31CN(C(=O)c2ccc3c(c2)OCO3)C1 [BRD-K24711160-001-01-3] | > 10 µM | 3% | –
9 | CCC(=O)N1CC2(CCN(C(=O)Nc3ccccc3F)CC2)c2c([nH]c3cc(OC)ccc23)[C@@H]1CO [BRD-K48749217-001-01-8] | > 10 µM | 5.53% | –
10 | CO[C@@H]1CN(C)C(=O)c2ccc(NC(=O)NC(C)C)cc2OC[C@@H](C)N(Cc2ccccc2)C[C@H]1C [BRD-K91191258-001-01-9] | > 10 µM | 9% | –
11 | C(=C\c1ccc(C2[C@@H]3CN(Cc4nccs4)C[C@H]2N3)cc1)/c1ccccc1 (stereo partly shown) [BRD-K82593502-019-01-3] | – | – | Tox_max_inhibition (%) [2]: 13%; IC50 (2nd round, unit inferred): > 10 µM
12 | N#C[C@H]1[C@@H](c2ccc(C3=CCCCC3)cc2)[C@@H](CO)N1C(=O)Nc1ccccc1F [BRD-K81680265-001-01-4] | – | – | Tox_max_inhibition (%) [2]: 11%; IC50 (2nd round, unit inferred): > 10 µM
13 | CCCN1C[C@H](C)[C@@H](OC)CN(C)C(=O)c2cc(NC(=O)Nc3cccc(F)c3)ccc2OC[C@H]1C [BRD-K02315086-001-01-0] | > 10 µM | 10% | –
14 | C[C@@H]1CN([C@@H](C)CO)C(=O)c2cc(NC(=O)Nc3ccc4c(c3)OCO4)ccc2O[C@@H](C)CCCCO[C@H]1CN(C)S(=O)(=O)c1ccccc1 [BRD-K69357983-001-01-6] | – | – | Tox_max_inhibition (%) [2]: 9%; IC50 (2nd round, unit inferred): > 10 µM
15 | COc1ccccc1C#Cc1ccc([C@H]2[C@@H](C#N)N(C(=O)C3CCCC3)[C@H]2CO)cc1 [BRD-K71730412-001-01-1] | > 10 µM | 13% | –
16 | C[C@@H]1CCCCO[C@H](CN(C)S(=O)(=O)c2ccccc2)[C@@H](C)CN([C@H](C)CO)C(=O)c2cc(NC(=O)Nc3ccc4c(c3)OCO4)ccc2O1 [BRD-K06373569-001-01-1] | – | – | IC50 (sheet "2nd round"): > 10 µM; Tox_max_inhibition (%) (sheet "2nd round"): 14%
17 | COc1ccc(C#Cc2ccc3c(c2)O[C@@H](CN(C)C(=O)Nc2cccc(OC)c2)[C@@H](C)CN([C@H](C)CO)S3(=O)=O)cc1 [BRD-K04089243-001-01-9] | > 10 µM | 2.28% | –
18 | C[C@H](CO)N1C[C@H](C)[C@@H](CN(C)S(=O)(=O)c2ccccc2)OCCCC[C@H](C)Oc2ccc(NC(=O)Nc3ccc4c(c3)OCO4)cc2C1=O [BRD-K78605373-001-01-5] | – | – | Tox_max_inhibition (%) [2]: 10%; IC50 (2nd round, unit inferred): > 10 µM
19 | N#Cc1ccc(-c2ccc(C3[C@@H]4CN(C(=O)Nc5ccc6c(c5)OCO6)C[C@H]3N4)cc2)cc1 (stereo partly shown) [BRD-K65395967-019-01-2] | – | – | Tox_max_inhibition (%) [2]: 28%; IC50 (2nd round, unit inferred): > 10 µM
20 | C[C@@H]1CN([C@@H](C)CO)C(=O)c2cc(C#Cc3ccccc3)cnc2O[C@H]1CN(C)C(=O)c1ccccc1 [BRD-K77826636-001-01-1] | – | – | Tox_max_inhibition (%) [2]: 20%; IC50 (2nd round, unit inferred): > 10 µM
21 | COc1ccc(C#Cc2ccc([C@@H]3[C@@H](CO)N4CCCCN(C(=O)Nc5cccc(F)c5)C[C@H]34)cc2)cc1 [BRD-K38867404-001-01-3] | > 10 µM | 4% | –
22 | CCCC(=O)Nc1ccc2c(c1)OC[C@@H](C)N(Cc1cc(F)ccc1F)C[C@@H](C)[C@H](OC)CN(C)C2=O [BRD-K36104357-001-01-0] | – | – | IC50 (sheet "2nd round"): > 10 µM; Tox_max_inhibition (%) (sheet "2nd round"): 18%
23 | Cc1ccc(S(=O)(=O)N(C)C[C@@H]2Oc3cc(C#CC4CCCC4)ccc3S(=O)(=O)N([C@@H](C)CO)C[C@H]2C)cc1 [BRD-K40215908-001-01-2] | – | – | Tox_max_inhibition (%) [2]: 34%; IC50 (2nd round, unit inferred): > 10 µM
24 | COc1ccc2c3c([nH]c2c1)[C@H](CO)N(C(C)=O)CC31CCN(C(=O)Nc2ccccc2F)CC1 [BRD-K30973842-001-02-5] | > 10 µM | 14% | –

Row | Compound | IC50 (sheet 2nd round) | Tox_max_inhibition (%) [1] | also measured
25 | N#C[C@H]1[C@H](c2ccc(-c3cccc(F)c3)cc2)[C@@H](CO)N1C(=O)NC1CCCC1 [BRD-K69441790-001-01-1] | 9.7 µM | 57% | –
26 | O=C(Nc1ccc(F)cc1)N1C[C@@H]2[C@H](c3ccccc31)[C@@H](CO)N2Cc1ccccc1Cl [BRD-K95406835-001-01-9] | > 10 µM | 4.68% | –
27 | O=C(Nc1cccc(F)c1)N1CCCCN2[C@H](CO)[C@@H](c3ccc(C#Cc4cccnc4)cc3)[C@@H]2C1 [BRD-K43947390-001-01-2] | > 10 µM | 5.34% | –
28 | C[C@@H]1CN([C@@H](C)CO)C(=O)Cc2cc(NC(=O)C3CCCCC3)ccc2O[C@H]1CN(C)Cc1ccc(Cl)c(Cl)c1 [BRD-K87663528-001-01-7] | – | – | IC50 (sheet "2nd round"): > 10 µM; Tox_max_inhibition (%) (sheet "2nd round"): 58%
29 | C[C@@H]1CN([C@H](C)CO)C(=O)c2cc(NC(=O)Nc3ccc4c(c3)OCO4)ccc2O[C@@H](C)CCCCO[C@H]1CN(C)S(=O)(=O)c1ccccc1 [BRD-K54383078-001-01-5] | > 10 µM | 5.48% | –
30 | Cc1ccccc1-c1ccc2c(c1)O[C@H](CN(C)C(=O)Nc1ccc(C(F)(F)F)cc1)[C@@H](C)CN([C@@H](C)CO)S2(=O)=O [BRD-K68538844-001-01-1] | > 10 µM | 35% | –
31 | O=C(Nc1ccccc1F)N1CCCCN2[C@H](CO)[C@@H](c3ccc(/C=C/c4ccccc4)cc3)[C@H]2C1 [BRD-K46850496-001-01-8] | > 10 µM | 11% | –
32 | C/C=C/c1ccc([C@H]2[C@@H](CO)N(C(=O)Nc3ccccc3F)[C@H]2C#N)cc1 [BRD-K12121340-001-01-2] | – | – | Tox_max_inhibition (%) [2]: 9%; IC50 (2nd round, unit inferred): > 10 µM
33 | C[C@@H]1CN([C@@H](C)CO)C(=O)c2cccc(NC(=O)c3cnccn3)c2O[C@@H]1CN(C)Cc1ccc(-c2ccccc2)cc1 [BRD-K92545585-001-01-9] | > 10 µM | 4.65% | –
34 | COc1ccc(NC(=O)N2CCCCN3[C@H](CO)[C@@H](c4ccc(-c5ccccc5F)cc4)[C@H]3C2)cc1 [BRD-K55569739-001-01-9] | > 10 µM | 3.75% | –
35 | O=C(NCC[C@H]1CC[C@H](NC(=O)c2ccccc2F)[C@@H](CO)O1)c1cnccn1 [BRD-K85850546-001-01-0] | > 10 µM | 9% | –
36 | COc1ccccc1C#Cc1ccc([C@@H]2[C@@H](CO)N3CCCCN(C(=O)C4CCC4)C[C@H]23)cc1 [BRD-K36773541-001-01-9] | > 10 µM | 6% | –
37 | C[C@@H]1CN([C@H](C)CO)C(=O)c2cccc(NC(=O)c3ccc(-c4nccs4)cc3)c2O[C@@H]1CN(C)C(=O)Nc1ccc(C(F)(F)F)cc1 [BRD-K36757984-001-01-6] | > 10 µM | 2.49% | –
38 | C[C@H]1CN([C@@H](C)CO)C(=O)c2cc(/C=C/c3ccccc3)cnc2O[C@@H]1CN(C)C(=O)C1CCCCC1 [BRD-K27989629-001-01-7] | > 10 µM | 5% | –
39 | CC(C)CC#Cc1ccc([C@@H]2[C@H]3CN(C(=O)Nc4ccccc4)CCCCN3[C@H]2CO)cc1 [BRD-K28504277-001-01-8] | 5.23 µM | 99% | –
40 | C[C@@H]1CN([C@@H](C)CO)C(=O)c2cc(N(C)C)ccc2O[C@@H](C)CCCCO[C@H]1CN(C)S(=O)(=O)c1ccc(F)cc1 [BRD-K72173400-001-01-7] | > 10 µM | 6% | –
41 | COc1ccc(S(=O)(=O)Nc2ccc3c(c2)C(=O)N([C@H](C)CO)C[C@@H](C)[C@H](CN(C)Cc2ccc(C(F)(F)F)cc2)OCCCC[C@@H](C)O3)cc1 [BRD-K02689416-001-01-9] | > 10 µM | 12% | –
42 | CCCNC(=O)N1[C@H](C#N)[C@H](c2ccccc2-c2cccc(C)c2)[C@@H]1CO [BRD-K74392214-001-01-7] | > 10 µM | 7.44% | –
43 | CCCNC(=O)N1[C@H](C#N)[C@H](c2ccc(C3=CCCCC3)cc2)[C@@H]1CO [BRD-K52785744-001-01-7] | – | – | IC50 (sheet "2nd round"): 7.93 µM; Tox_max_inhibition (%) (sheet "2nd round"): 50%
44 | COc1ccc2c3c([nH]c2c1)[C@H](CO)N(C(C)=O)CC31CN(Cc2ccccc2Cl)C1 [BRD-K02242562-001-01-9] | > 10 µM | 3.51% | –
45 | O=C(Cc1ccccc1)N1CC(=O)N2[C@H](CO)[C@H](c3ccc(C#CCc4ccccc4)cc3)[C@H]2C1 [BRD-K27191881-001-01-3] | > 10 µM | 3.49% | –
46 | C[C@H](CO)N1C[C@H](C)[C@H](CN(C)C(=O)C2CCCCC2)Oc2ncc(C#Cc3cccc(F)c3)cc2C1=O [BRD-K77264696-001-01-2] | > 10 µM | 30% | –
47 | O=C(C[C@H]1CC[C@@H]2[C@H](COC[C@H](O)CN2Cc2ccc(C(F)(F)F)cc2)O1)N1CCc2ccccc2C1 [BRD-K49087010-001-01-1] | – | – | IC50 (sheet "2nd round"): 9.12 µM; Tox_max_inhibition (%) (sheet "2nd round"): 60%
